In patent US20170340636A1, “COMPOSITIONS AND METHODS FOR INHIBITION OF AUTOPHAGY” (Board of Regents, The University of Texas System, priority 2016, published 2017):
Entries after “also recorded” stand apart in the source; their conditions may differ.

How the values were obtained:
[1] = system: U2OS GFP-LC3 cells; test: GFP-LC3 accumulation by flow cytometry (autophagic flux); type: cell-based, human; settings: 50 μM, 24 hours
Description: (§1) FIG. 4A) U2OS cells stably expressing the GFP-LC3 fusion transgene were treated with the indicated compound at 50 μM concentration for 24 hours before GFP fluorescence was measured by flow cytometry. The median fluorescent value from 20,000 cells per condition was normalized to that of vehicle alone (DMSO) within a given experiment. The mean+SD of >2 independent experiments is shown. ****, p<0.0001; ***, p<0.001; **, p<0.01; ns, p>0.05 versus vehicle alone (DMSO) by unpaired t test. FIG. 4B) TAOK2 inhibitors induce accumulation of p62. U2OS GFP-LC3 cells were treated with the indicated compounds at 50 μM concentration, or DMSO alone, for 24 hours. Lysates were collected and analyzed by western blot using the indicated antibodies. XPB was used as a loading control.
U2OS GFP-LC3 cells were seeded in 6-well plates at 150,000 cells per well in Dulbecco's Modified Eagle Medium supplemented with 10% fetal bovine serum. Twenty-four hours after seeding, the indicated compounds were added to a final concentration of 50 μM, or an equivalent volume of vehicle alone (DMSO) was added. Twenty-four hours after compound addition, cells were rinsed with PBS (Phosphate-Buffered Saline) and analyzed by flow cytometry using a FACS Calibur (BD Biosciences) to measure media GFP fluorescence per cell.
It had previously been determined that TAOK2 is required for autophagic flux in cancer cells. siRNA targeting TAOK2 elicited an expression response similar to siRNA targeting known autophagy genes, such as ULK1, a protein kinase involved in mTOR and AMPK signaling, in the human colon cancer cell line HCT116. TAOK2 depletion also impaired autophagic flux in human osteosarcoma cell line U2OS engineered to stably express the autophagy marker 1A/1B-light chain 3 fused to GFP (GFP-LC3), a microtubule associated protein.
(§2) Degradation of the autophagy scaffold and LC3 binding protein p62 is a second marker of autophagic flux. p62 degradation was assayed by Western blotting (FIG. 4B).

[2] = system: U2OS GFP-LC3 cells; test: p62 accumulation by western blot (autophagic flux); type: cell-based, human; settings: 50 μM, 24 hours
Description: as §1
U2OS GFP-LC3 cells were seeded in 6-well plates at 150,000 cells per well in Dulbecco's Modified Eagle Medium supplemented with 10% fetal bovine serum. Twenty-four hours after seeding, the indicated compounds were added to a final concentration of 50 µM, or an equivalent volume of vehicle alone (DMSO) was added. Twenty-four hours after compound addition, cells were rinsed twice with PBS and then lysed in 2× sample buffer. Lysates were boiled for 5 minutes, sonicated to shear DNA, separated by SDS-PAGE, and transferred to PVDF membranes (Biorad). The membranes were blocked in 5% milk in TBS-T (Tris-Buffered-Saline, Tween 20) for one hour at room temperature and then incubated with primary antibody in blocking solution overnight at 4° C. Membranes were then washed, incubated with secondary antibody in blocking solution, washed again, and analyzed by enhanced chemiluminescence followed by exposure to film.
as §2

[3] = system: p38 and ASK1; test: DSF selectivity for TAOK2 over small panel of other MAPK cascade members; type: binding; settings: versus p38 and ASK1
Description: Differential scanning fluorimetry binding assays of selected compounds against TAOK2 were conducted to measure strength of compound binding. A solution of 5 μM TAOK2, 50 mM MgCl2, 50 mM HEPES pH 7.5, and 2.5x SyproOrange(Life Technologies) was made. Compound was added to a final concentration of 1 μM. 25 μl of the reaction solution was added to the wells of a Biorad Multiplate 96 wellclear PCR plate. The plate was covered with a Biorad Microseal ‘B’ seal. Plates were read in a Biorad CFX96 Real-Time PCR system. The temperature was increased from 4° C. to 80° C., with fluorescence measurements being taken every 0.5° C. in the 6-FAM Fluorescein channel. The fluorescence response to heat curve was fit to a binding isotherm in order to determine the inflection point, which was taken as the melt temperature (Tm).
The difference between the TAOK2 ΔTm and that of p38 and ASK1 was determined. […] The majority of the other compounds were also preferentially inhibitory toward TAOK2. Of the 13 compounds, SW034538, SW172006 and SW083688 were cross-verified for selectivity by performing a specificity screen against 45 kinases commercially at Eurofins Cerep, Inc. (FIG. 3).

| Compound | impairment of autophagic flux (accumulation of GFP-LC3) [1] | abundance of p62 [2] | selectivity for TAOK2 according to DSF [3] |
| --- | --- | --- | --- |
| CS(=O)(=O)c1ccc2nc(NC(=O)CCCOc3ccc(Cl)cc3)sc2c1 [SW172006] | effective | increased the abundance of p62 | selective |
| CCC(=O)Nc1nc(C)c(-c2csc(Nc3cc(OC)ccc3OC)n2)s1 [SW034538] | showing inhibition; also recorded: effective | did not appear to increase the appearance of p62 | selective |
| CCOCCCn1c(=S)[nH]c2cc(C(=O)NCC3COc4ccccc4O3)ccc2c1=O (stereo not drawn) [SW083688] | effective | increased the abundance of p62 | selective |
